# Measurements: patent publication US10307413B2, “Tetrahydro- and dihydro-isoquinoline PRMT5 inhibitors and uses thereof” (Epizyme, Inc., priority 2013, dated 2019)
# Read-outs that look alike come from different tables or passages of the source.
# Columns and labels:
# Z-138 cell line = test: Z-138 Proliferation Assay (Cell Titer Glo, 5 days); format: cell-based; conditions: Homo sapiens, read-out: Proliferation EC50
# In short: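 Viability via CellTiter-Glo luminescence (ATP) after 5-day incubation at 37 °C, 5% CO2. Compounds tested in triplicate, nine 3-fold steps, highest final concentration 20 μM in 0.2% DMSO; 50% inhibitory concentration by 4-parameter fit of normalized curves.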
# [1] = tested on: symmetric di-methyl arginine in Z-138 cells; test: Z-138 Methylation Assay (In Cell Western for symmetric di-methyl arginine and DNA content); format: cell-based; conditions: Homo sapiens, read-out: ICW EC50
# In short: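 In-cell western: symmetric di-methyl arginine signal ratioed to DRAQ5 DNA content after 96 h compound exposure of Z-138 cells seeded at 50,000 cells/mL.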
SMILES,"EC50 (Z-138 cell line; 120 h, Z-138 cells, 5 days)",EC50 [1],"EC50 (Z-138 cell line; Z-138, 120 h)"
"CC(=O)N1CCC(Nc2cc(C(=O)NC[C@H](O)CN3CCc4ccccc4C3)ncn2)CC1 [Compound 208, (S)-6-((1-acetylpiperidin-4-yl)amino)-N-(3-(3,4-dihydroisoquinolin-2(1H)-yl)-2-hydroxypropyl)pyrimidine-4-carboxamide]",< 100 nM,< 100 nM,
O=C(NC[C@H](O)CN1CCc2ccccc2C1)c1cc(NC2CCNC2)ncn1 (stereo partly shown) [Compound 209],10000 to 50000 nM,< 100 nM,
CC(=O)N1CCC(Nc2cc(C(=O)NC[C@H](O)CN3CCc4ccccc4C3)ncn2)C1 (stereo partly shown) [Compound 210],101 to 1000 nM,< 100 nM,
O=C(NC[C@H](O)CN1CCc2ccccc2C1)c1cncc(NC2CCOC2)c1 (stereo partly shown) [Compound 211],< 100 nM,< 100 nM,
C[C@@H]1COCCC1Nc1cccc(C(=O)NC[C@H](O)CN2CCc3ccccc3C2)c1 (stereo partly shown) [Compound 212],101 to 1000 nM,< 100 nM,
C[C@H]1COCCC1Nc1cccc(C(=O)NC[C@H](O)CN2CCc3ccccc3C2)c1 (stereo partly shown) [Compound 213],101 to 1000 nM,< 100 nM,
CN(C)CCNc1cc(C(=O)NC[C@H](O)CN2CCc3ccccc3C2)ccn1 [Compound 214],1000 to 10000 nM,< 100 nM,
CC(=O)N1CCC(Nc2cccc(C(=O)NC[C@H](O)CN3CCc4ccccc4C3)c2)CC1 [Compound 215],< 100 nM,< 100 nM,
CS(=O)(=O)N1CCC(Nc2cccc(C(=O)NC[C@H](O)CN3CCc4ccccc4C3)c2)CC1 [Compound 216],101 to 1000 nM,< 100 nM,
O=C(NC[C@H](O)CN1CCc2ccccc2C1)c1cccc(NC2CCN(CC(F)(F)F)CC2)c1 [Compound 217],101 to 1000 nM,< 100 nM,
O=C(NC[C@@H](O)CN1CCc2ccccc2C1)c1ccc2ncccc2c1 [Compound 218],10000 to 50000 nM,101 to 1000 nM,
"Cc1ccc2cc(C(=O)NC[C@@H](O)CN3CCc4ccccc4C3)ccc2n1 [Compound 219, (R)—N-(3-(3,4-dihydroisoquinolin-2(1H)-yl)-2-hydroxypropyl)-2-methylquinoline-6-carboxamide]",10000 to 50000 nM,101 to 1000 nM,
O=C(NC[C@H](O)CN1CCc2ccccc2C1)c1ccc2ncccc2c1 [Compound 220],101 to 1000 nM,< 100 nM,
"Cc1ccc2cc(C(=O)NC[C@H](O)CN3CCc4ccccc4C3)ccc2n1 [Compound 221, (S)—N-(3-(3,4-dihydroisoquinolin-2(1H)-yl)-2-hydroxypropyl)-2-methylquinoline-6-carboxamide]",101 to 1000 nM,< 100 nM,
NC(=O)CNCCOc1cccc(C(=O)NCC(O)CN2CCc3ccccc3C2)c1 (stereo not shown) [Compound 222],> 20000 nM,101 to 1000 nM,
CN1CCC(Nc2cc(C(=O)NC[C@H](O)CN3CCc4ccccc4C3)ccn2)CC1 [Compound 223],1000 to 10000 nM,< 100 nM,
O=C(NC[C@H](O)CN1CCc2ccccc2C1)c1ccnc(NC2CCN(CC(F)(F)F)CC2)c1 [Compound 224],101 to 1000 nM,< 100 nM,
CS(=O)(=O)N1CCC(Nc2cc(C(=O)NC[C@H](O)CN3CCc4ccccc4C3)ccn2)CC1 [Compound 225],< 100 nM,< 100 nM,
O=C(NC[C@H](O)CN1CCc2ccccc2C1)c1ccnc(NC2CCN(CC(F)(F)F)C2)c1 (stereo partly shown) [Compound 226],101 to 1000 nM,< 100 nM,
CS(=O)(=O)N1CCC(Nc2cc(C(=O)NC[C@H](O)CN3CCc4ccccc4C3)ccn2)C1 (stereo partly shown) [Compound 227],101 to 1000 nM,< 100 nM,
CC(=O)N1CCC(Nc2cc(C(=O)NC[C@H](O)CN3CCc4ccccc4C3)ccn2)C1 (stereo partly shown) [Compound 228],101 to 1000 nM,< 100 nM,
O=C(NC[C@H](O)CN1CCc2ccccc2C1)c1ccnc(OC2CCNCC2)c1 [Compound 229],1000 to 10000 nM,< 100 nM,
O=C(NC[C@H](O)CN1CCc2ccccc2C1)c1cc(NC2CCOC2)ncn1 (stereo partly shown) [Compound 230],101 to 1000 nM,< 100 nM,
Cc1c(NC2CCOCC2)ncnc1C(=O)NC[C@H](O)CN1CCc2ccccc2C1 [Compound 231],1000 to 10000 nM,< 100 nM,
CN(C[C@H](O)CN1CCc2ccccc2C1)C(=O)c1cc(NC2CCOCC2)ncn1 [Compound 232],1000 to 10000 nM,101 to 1000 nM,
CNCCN(C)c1cc(C(=O)NC[C@H](O)CN2CCc3ccccc3C2)ccn1 [Compound 233],1000 to 10000 nM,101 to 1000 nM,
CN(C)CCOc1cc(C(=O)NC[C@H](O)CN2CCc3ccccc3C2)ccn1 [Compound 234],1000 to 10000 nM,< 100 nM,

SMILES,"EC50 (Z-138 cell line; 120 h, Z-138 cells, 5 days)",EC50 [1],"EC50 (Z-138 cell line; Z-138, 120 h)"
O=C(NC[C@H](O)CN1CCc2ccccc2C1)c1ccnc(NCC2CCNCC2)c1 [Compound 235],> 20000 nM,101 to 1000 nM,
O=C(NC[C@H](O)CN1CCc2ccccc2C1)c1ccnc(NCC2CCCNC2)c1 (stereo partly shown) [Compound 236],1000 to 10000 nM,101 to 1000 nM,
O=C(NC[C@H](O)CN1CCc2ccccc2C1)c1ccnc(NCC2CCCCN2)c1 (stereo partly shown) [Compound 237],1000 to 10000 nM,< 100 nM,
O=C(NC[C@H](O)CN1CCc2ccccc2C1)c1ccnc(NCC2CNCCO2)c1 (stereo partly shown) [Compound 238],10000 to 50000 nM,101 to 1000 nM,
CN1CCC(Nc2cccc(C(=O)NC[C@H](O)CN3CCc4ccccc4C3)c2)CC1 [Compound 239],1000 to 10000 nM,< 100 nM,
O=C(NC[C@H](O)CN1CCc2ccccc2C1)c1c[nH]c2ccccc12 [Compound 240],> 20000 nM,101 to 1000 nM,
O=C(NC[C@H](O)CN1CCc2ccccc2C1)c1cccc2[nH]cnc12 [Compound 241],1000 to 10000 nM,101 to 1000 nM,
O=C(NC[C@H](O)CN1CCc2ccccc2C1)c1n[nH]c2ccccc12 [Compound 242],1000 to 10000 nM,101 to 1000 nM,
O=C(NC[C@H](O)CN1CCc2ccccc2C1)c1ccc2c(c1)CCO2 [Compound 243],1000 to 10000 nM,101 to 1000 nM,
O=C(NC[C@H](O)CN1CCc2ccccc2C1)c1ccc2c(c1)OCO2 [Compound 244],1000 to 10000 nM,101 to 1000 nM,
O=C(NC[C@H](O)CN1CCc2ccccc2C1)c1cnc2ccccc2n1 [Compound 245],10000 to 50000 nM,101 to 1000 nM,
Cn1cc(C(=O)NC[C@H](O)CN2CCc3ccccc3C2)c2ccccc21 [Compound 246],,101 to 1000 nM,1000 to 10000 nM
O=C(NC[C@H](O)CN1CCc2ccccc2C1)c1ccc2c(c1)CCCC2 [Compound 247],1000 to 10000 nM,101 to 1000 nM,
O=C(NC[C@H](O)CN1CCc2ccccc2C1)c1csc2ccccc12 [Compound 248],1000 to 10000 nM,101 to 1000 nM,
O=C(NC[C@H](O)CN1CCc2ccccc2C1)c1cccc2c1OCCO2 [Compound 249],10000 to 50000 nM,101 to 1000 nM,
COc1ccc2oc(C(=O)NC[C@H](O)CN3CCc4ccccc4C3)cc2c1 [Compound 250],1000 to 10000 nM,< 100 nM,
COc1ccc2cc(C(=O)NC[C@H](O)CN3CCc4ccccc4C3)ccc2c1 [Compound 251],1000 to 10000 nM,< 100 nM,
CC(=O)N(C)CCN1CCN(Cc2cccc(C(=O)NCC(O)CN3CCc4ccccc4C3)c2)CC1 (stereo not shown) [Compound 252],1000 to 10000 nM,101 to 1000 nM,
CN1CCN(Cc2cccc(C(=O)NCC(O)CN3CCc4ccccc4C3)c2)CC1CO (stereo not shown) [Compound 253],1000 to 10000 nM,101 to 1000 nM,
CN1CCC(Nc2cc(C(=O)NC[C@H](O)CN3CCc4ccccc4C3)ccn2)C1 (stereo partly shown) [Compound 255],1000 to 10000 nM,< 100 nM,
O=C(NC[C@H](O)CN1CCc2ccccc2C1)c1cc(OC2CCOCC2)ncn1 [Compound 256],1000 to 10000 nM,< 100 nM,
CS(=O)(=O)N1CCC(Nc2cc(C(=O)NC[C@H](O)CN3CCc4ccccc4C3)ncn2)C1 (stereo partly shown) [Compound 257],1000 to 10000 nM,< 100 nM,
O=C(NC[C@H](O)CN1CCc2ccccc2C1)c1cc(OC2CCNCC2)ncn1 [Compound 258],10000 to 50000 nM,101 to 1000 nM,
O=C(NC[C@H](O)CN1CCc2ccccc2C1)c1cncc(NC2CCNC2)c1 (stereo partly shown) [Compound 259],> 20000 nM,101 to 1000 nM,
O=C(NC[C@H](O)CN1CCc2ccccc2C1)c1cncc(OC2CCNCC2)c1 [Compound 260],> 20000 nM,101 to 1000 nM,
CN(c1cc(C(=O)NC[C@H](O)CN2CCc3ccccc3C2)ncn1)C1CCOCC1 [Compound 261],1000 to 10000 nM,< 100 nM,
